The source of these data is patent publication US4332802A, “11-Oxo-11H-pyrido[2,1-b]quinazoline-2-carboxylic acid and salts thereof, antiallergic compositions containing it and methods of suppressing allergic reactions with it” (Boehringer Ingelheim KG, priority 1975, dated 1982).

Where two headings read alike, the source gives them in different places.

Data set [1] in a line: Absorption: quotient ED35 p.o./ED35 i.v. from the dextran edema test. The conditions noted are these: in vivo; rat; the smaller the quotient, the better the absorption. The source says: For the efficacy of a pharmaceutical which is to be administered perorally, the absorption is of particular advantage. Conclusions regarding the absorption can be drawn from a comparison of the ED35 --values p.o. and i.v.; the smaller the quotient ED35 p.o./ED35 i.v., the better the absorption.

Data set [2] deals with anaphylactoid dextran reaction in the rat paw. Description: Dextran edema test (anaphylactoid dextran reaction, paw swelling). The data set is classed as in vivo. The conditions noted are these: for ED35: 0.5 h, rat, graphic extrapolation; for % Inhibition of swelling: rat paw, dextran, dose of 100 mgm/kg (p.o.). The source says: The antiallergic activity of the compounds of the present invention was ascertained and compared to that of structurally related known compounds by the anaphylactic dextran reaction method, where
Dextran induces in the rat a de-granulation of mast cells and thus the release of mediator substances such as histamine and serotonin, with consequent edema formation. The reaction manifests itself in a manner similar to anaphylaxis [see Morrison et al., J.exp.Med. 103, 399 (1956)].
Fasted male laboratory rats (Chbb:Thom.SPF) having a body weight of 120-180 gm were used as the test animals; they were initially kept in wire cages, and after provocation of the reaction on chaff. The allergic reaction was released by subplantar injection into the right hind paw of 100 μgm of dextran (mol. wt. 60,000) in 0.1 ml of physiological sodium chloride solution. The degree of inflammatory swelling was determined by dorso-plantar measurement of the thickness of the paw [see Doepfner et al., Int. Arch. Allergy 12, 89 (1958)] in 1/100 mm; swelling was defined as the difference between the paw thickness 30 minutes after the dextran injection and the paw thickness before the dextran injection. For the dextran injection and the paw thickness measurements the animal was placed under light general anesthesia with ether (etherrausch).
The test compound was administered shortly before release of the allergic reaction in sodium chloride solution i.v. (0.5 ml/100 gm body weight), or 10 minutes before in 1% tylose 2000 p.o. (1 ml/100 gm body weight). Control animals received only the vehicle.
From the raw data thus obtained the percentage of swelling inhibition was calculated from the average paw swelling in the treated animals (T) and in the control animals (K) in accordance with the formula [formula] By graphic extrapolation the dose of test compound was determined which produced a 35% reduction of the swelling (ED35). For graphic representation of percentage inhibition values the standard error (sx --) was determined according to Fenner, Naturwissenschaften 19, 310 (1931).
For the anaphylactoid dextran reaction in the rat paw the following values were obtained at a dose of 100 mgm/kg: […]

Where [3] appears, read: iv, i.v., shortly before dextran, sodium chloride solution, read-out: ED35 i.v. (dose producing 35% reduction of the swelling).
Setting [4] is: po, p.o., 10 minutes before dextran, 1% tylose, read-out: ED35 p.o. (dose producing 35% reduction of the swelling).

Turning to `O=C(O)c1ccc2nc3ccccn3c(=O)c2c1` [A, 11-Oxo-11H-pyrido[2,1-b]quinazoline-2-carboxylic acid], in data set [1], the ED35 p.o./i.v. ratio (absorption) came to 1.9. Further, the ED35 in data set [2] (setting [3]) was 2.1 mg/kg; in data set [2] (setting [4]), 4 mg/kg.
For `O=C(O)c1cccc2nc3ccccn3c(=O)c12` [B, 11-Oxo-11H-pyrido[2,1-b]quinazoline-1-carboxylic acid], the “% Inhibition of swelling” value in data set [2] turned out to be 0%.
On the same count and under the same terms, as for `O=C(O)c1cccc2c(=O)n3ccccc3nc12` [C, 11-Oxo-11H-pyrido[2,1-b]quinazoline-4-carboxylic acid], the figure is 10%.
Still for that read-out and setting: the value for `O=C(O)c1ccn2c(=O)c3ccccc3nc2c1` [D, 11-Oxo-11H-pyrido[2,1-b]quinazoline-7-carboxylic acid] was 38%.
On to `O=C(O)c1ccc2nc3ccccc3c(=O)n2c1` [E, 11-Oxo-11H-pyrido[2,1-b]-quinazoline-8-carboxylic acid], for which, in data set [1], the ED35 p.o./i.v. ratio (absorption) was 4. Further, the figures for the ED35 in data set [2] (setting [3]) and in data set [2] (setting [4]) were 1.1 mg/kg and 4.4 mg/kg, respectively.
